Like-named read-outs stand apart in the source and are kept apart here.
Assays:
β-adrenergic nerves = assay: Antagonistic activity against isoproterenol (β-adrenergic nerves blocking activity), anesthetized dogs; format: in vivo, Mongrel dogs; conditions: Canis lupus familiaris, iv, isoproterenol 0.3 μg/kg, dog; for inhibition at 0.0001 mg/kg: 0.1 μg/kg i.v.; for inhibition at 0.001 mg/kg: 1.0 μg/kg i.v.; for inhibition at 0.01 mg/kg: 10 μg/kg i.v.; for inhibition at 0.1 mg/kg: 100 μg/kg i.v.
Protocol: For example, the antagonistic activity against isoproterenol (as an indication of β-adrenergic nerves blocking activity) of the 3,4-dihydrocarbostyril derivatives of the present invention was measured according to a method as described in R. D. Robson and H. R. Kaplan, "J. Pharmacol. Exp. Therap.," Vol. 175, page 157 (1970) as follows:
Mongrel dogs of both sexes weighing 9.7 - 19.0 kg were anesthetized with pentobarbital-Na (30 mg/kg, i.v.) and fixed on their back. Anesthesia was maintained by continuous intravenous infusion of pentobarbital-Na at a rate of 4 mg/kg/hour.
Arterial blood pressure was measured from the left femoral artery with a pressure transducer (Nihon Kohden, RP-3). The left femoral vein was cannulated for i.v. injection of drugs. Heart rate was measured with a tachometer (San-ei, type 2130) treggered by the R wave of ECG (Lead II). Blood pressure and heart rate were simultaneously recorded on an ink-writing recorder (San-ei, type 145).
Test drugs were cumulatively injected at intervals of 10 minutes after reproducibility test on the positive chronotropic and hypotensive actions of a submaximal dose of 0.3 μg/kg of isoproterenol. At the time when responses of blood pressure and heart rate to these test drugs were stabilized, at about 3 minutes after injection, isoproterenol 0.3 μg/kg was injected again. Their antagonistic activities were determined from difference between responses to isoproterenol before and after administration of the test drugs and expressed as % inhibition.

[1] = Hypotensive action, arterial blood pressure in anesthetized dogs; format: in vivo, Mongrel dogs; conditions: cumulative, anesthetized dog
Protocol: Mongrel dogs of both sexes weighing 9.7 - 19.0 kg were anesthetized with pentobarbital-Na (30 mg/kg, i.v.) and fixed on their back. Anesthesia was maintained by continuous intravenous infusion of pentobarbital-Na at a rate of 4 mg/kg/hour. After the vinyl catheter was inserted in the left femoral vein, heparin sodium, 1000 U/kg, was intravenously injected in order to prevent blood coagulation. Arterial blood pressure was measured from the left femoral artery with a pressure transducer (Nihon Kohden, RP-3). Test drugs were dissolved in 0.9% physiological saline solution and then intravenously administered with the cumulative method at intervals of 5 - 10 minutes.

Acute toxicity (LD50) = conditions: in vivo
[2] = blood pressure, read-out: Antagonistic Activity against Isoproterenol (% Inhibition of changes in BP)
[3] = heart rate, read-out: Antagonistic Activity against Isoproterenol (% Inhibition of changes in HR)

Structure (SMILES) | inhibition at 0.0001 mg/kg (β-adrenergic nerves; [2]) | inhibition at 0.001 mg/kg (β-adrenergic nerves; [2]) | inhibition at 0.01 mg/kg (β-adrenergic nerves; [2]) | inhibition at 0.1 mg/kg (β-adrenergic nerves; [2]) | inhibition at 0.0001 mg/kg (β-adrenergic nerves; [3]) | inhibition at 0.01 mg/kg (β-adrenergic nerves; [3]) | inhibition at 0.1 mg/kg (β-adrenergic nerves; [3]) | Hypotensive Action (Blood Pressure mmHg) ([1]; 0.1 μg/kg i.v.) | Hypotensive Action (Blood Pressure mmHg) ([1]; 1.0 μg/kg i.v.) | Hypotensive Action (Blood Pressure mmHg) ([1]; 10 μg/kg i.v.) | Hypotensive Action (Blood Pressure mmHg) ([1]; 100 μg/kg i.v.) | LD50 (Acute toxicity (LD50); iv) | LD50 (Acute toxicity (LD50); po) | other results
CC(C)(C)NCC(O)COc1ccc(O)c2c1CCC(=O)N2 (centres unmarked) [drawing 12] | 18.4% | 64.6% | 94.8% | 100% | 5.1% | 97.5% | 100% | – | – | – | – | – | – | inhibition at 0.001 mg/kg (β-adrenergic nerves; [3]): 44.5%
COc1ccc(OCC(O)CNC(C)(C)C)c2c1NC(=O)CC2 (centres unmarked) [drawing 13] | 40.6% | 54.4% | 77.1% | 82.2% | 7% | 39.8% | 80.5% | – | – | – | – | – | – | –
CC(C)(C)NCC(O)COc1ccc(OCc2ccccc2)c2c1CCC(=O)N2 (centres unmarked) [drawing 14] | 20% | 10.9% | 12.6% | 8.4% | 13.5% | 21.4% | 65.4% | – | – | – | – | – | – | inhibition at 0.001 mg/kg (β-adrenergic nerves; [3]): 13.5%
CC(C)(C)NCC(O)COc1ccc(O)c2c1CCC(=O)N2 (centres unmarked) [drawing 15] | – | – | – | – | – | – | – | -1.6 mmHg | -5.4 mmHg | -11.8 mmHg | -30.6 mmHg | – | – | –
COc1ccc(OCC(O)CNC(C)(C)C)c2c1NC(=O)CC2 (centres unmarked) [drawing 16] | – | – | – | – | – | – | – | 0.0 mmHg | -2.0 mmHg | -3.5 mmHg | -5.5 mmHg | – | – | –
CC(C)(C)NCC(O)COc1ccc(OCc2ccccc2)c2c1CCC(=O)N2 (centres unmarked) [drawing 17] | – | – | – | – | – | – | – | -1.0 mmHg | -4.5 mmHg | -10.5 mmHg | -16.0 mmHg | – | – | –
CC(C)(C)NCC(O)COc1ccc(O)c2c1CCC(=O)N2 (centres unmarked) [drawing 18] | – | – | – | – | – | – | – | – | – | – | – | 94 mg/kg | 1380 mg/kg | –
COc1ccc(OCC(O)CNC(C)(C)C)c2c1NC(=O)CC2 (centres unmarked) [drawing 19] | – | – | – | – | – | – | – | – | – | – | – | 83 mg/kg | 1210 mg/kg | –
CC(C)(C)NCC(O)COc1ccc(OCc2ccccc2)c2c1CCC(=O)N2 (centres unmarked) [drawing 20] | – | – | – | – | – | – | – | – | – | – | – | 80 mg/kg | 1150 mg/kg | –

Source: US4072683A, “3,4-Dihydrocarbostyril derivatives” (Otsuka Pharmaceutical Co., Ltd., priority 1974, dated 1978)
